Source: patent US4045298A, “Antibiotic XK-62-2 and process for production thereof” (priority 1972, dated 1977)
Values after ≈ are worked out from the molar mass of the structure shown.

Legend:
Assay type in all cases: cell-based
[1] = test system: Bacillus subtilis No. 10707; test: Activity (unit/mg) of isolated preparations; paper disk method using an agar plate
Procedure: After the completion of fermentation, the culture liquor is adjusted to a pH of 2.0 with 12N sulfuric acid and stirred for 30 minutes. Then, about 10 kg of a filter aid, Radiolite No. 600 (product of Showa Kagaku Kogyo Co., Ltd., Japan) is added thereto and the microbial cells are removed by filtration. The filtrate is adjusted to a pH of 8.0 with 6N sodium hydroxide and passed through a column packed with about 50 l of a cation exchange resin, Amberlite IRC-50 (ammonia form). The active substance is adsorbed on the resin and the eluate is discarded. After washing the resin with water, the active substance is eluted out with 1N aqueous ammonia.
Active fractions are combined and concentrated in vacuo to about 5 l. The concentrate is then adjusted to a pH of 8.0 with 6N sulfuric acid and passed through a column packed with 1 l of an anion exchange resin, Dowex 1×2 (OH^- form). The column is washed with about 5 l of water and the effluent and the washings containing active substance are combined and are concentrated to 1/15 by volume. […] The resultant precipitate is removed by filtration and the filtrate is concentrated to 500 ml. The concentrate is adjusted to a pH of 4.5 with 6N sulfuric acid and 2.5 l of methanol is added thereto. […] The precipitate is separated by filtration and washed with methanol.
After the completion of fermentation, the culture liquor is adjusted to a pH of 2.0 with 12N sulfuric acid and stirred for 30 minutes. Then, about 10 kg of Radiolite No. 600 (trade name) is added thereto and the microbial cells are removed by filtration. The filtrate is adjusted to a pH of 8.0 with 6N sodium hydroxide and passed through a column packed with about 50 l of a cation exchange resin, Amberlite IRC-50 (ammonia form). The eluate is discarded. After washing the resin with water, the active substance is eluted out with 1N aqueous ammonia.

Escherichia coli KY 8310 = test: Antibacterial spectra by agar dilution method; conditions: KY8310, resistant to chloramphenicol, streptomycin, kanamycin, gentamicin, kanendomycin, paromomycin, tetracycline and spectinomycin, read-out: Minimum inhibitory concentration
Excerpt: (§1) Antibacterial spectra of XK-62-2 by agar

[2] = test system: Klebsiella pneumoniae ATCC 10031; test: Antibacterial spectra by agar dilution method; conditions: ATCC10031, Table 5, read-out: Minimum inhibitory concentration
Excerpt: as §1

[3] = test system: Bacillus cereus ATCC 9634; test: Antibacterial spectra by agar dilution method; conditions: ATCC9634, Table 5, read-out: Minimum inhibitory concentration
Excerpt: as §1

[4] = test system: Pseudomonas aeruginosa BMH No. 1; test: Antibacterial spectra by agar dilution method; conditions: BMHNO.1, Table 5, read-out: Minimum inhibitory concentration
Excerpt: as §1

[5] = test system: Staphylococcus aureus KY 8942; test: Antibacterial spectra by agar dilution method; conditions: KY8942, resistant to kanamycin, paromomycin and streptomycin, read-out: Minimum inhibitory concentration
Excerpt: as §1

[6] = test system: Staphylococcus aureus KY 8957; test: Antibacterial spectra by agar dilution method; conditions: KY8957, resistant to chloramphenicol, streptomycin, kanendomycin, tetracycline and paromomycin, read-out: Minimum inhibitory concentration
Excerpt: as §1

Escherichia coli ATCC 26 = test: Antibacterial spectra by agar dilution method; conditions: ATCC26, Table 5, read-out: Minimum inhibitory concentration
Excerpt: as §1

[7] = test system: Staphylococcus aureus KY 8953; test: Antibacterial spectra by agar dilution method; conditions: KY8953, resistant to streptomycin, kanamycin, paromomycin, tetracycline, neomycin, kanendomycin and erythromycin, read-out: Minimum inhibitory concentration
Excerpt: as §1

[8] = test system: Streptococcus faecalis ATCC 10541; test: Antibacterial spectra by agar dilution method; conditions: Enterococcus faecalis, ATCC10541, Table 5, read-out: Minimum inhibitory concentration
Excerpt: as §1

[9] = test system: Staphylococcus aureus KY 8956; test: Antibacterial spectra by agar dilution method; conditions: KY8956, resistant to streptomycin, paromomycin, tetracycline, erythromycin and oleandomycin, read-out: Minimum inhibitory concentration
Excerpt: as §1

[10] = test system: Staphylococcus aureus ATCC 6538P; test: Antibacterial spectra by agar dilution method; conditions: ATCC6538P, Table 5, read-out: Minimum inhibitory concentration
Excerpt: as §1

Escherichia coli KY 8302 = test: Antibacterial spectra by agar dilution method; conditions: KY8302, resistant to chloramphenicol, streptomycin, kanamycin, paromomycin, tetracycline and spectinomycin, read-out: Minimum inhibitory concentration
Excerpt: as §1

[11] = test system: Shigella sonnei ATCC 9290; test: Antibacterial spectra by agar dilution method; conditions: ATCC9290, Table 5, read-out: Minimum inhibitory concentration
Excerpt: as §1

[12] = test system: Bacillus subtilis No. 10707; test: Antibacterial spectra by agar dilution method; conditions: Table 5, read-out: Minimum inhibitory concentration
Excerpt: as §1

[13] = test system: Bacillus cereus var. myccides ATCC 9463; test: Antibacterial spectra by agar dilution method; conditions: ATCC9463, Table 5, read-out: Minimum inhibitory concentration
Excerpt: as §1

Escherichia coli KY 8315 = test: Antibacterial spectra by agar dilution method; conditions: KY8315, resistant to streptomycin, kanamycin, paromomycin and neomycin, read-out: Minimum inhibitory concentration
Excerpt: as §1

[14] = test system: Salmonella typhosa ATCC 9992; test: Antibacterial spectra by agar dilution method; conditions: Salmonella enterica, read-out: Minimum inhibitory concentration
Excerpt: as §1

[15] = test system: Pseudomonas aeruginosa KY 8516; test: Minimum inhibitory concentration by agar dilution method
Excerpt: (§2) Minimum inhibitory concentration
(§3) (γ/ml : by agar dilution method)

[16] = test system: Pseudomonas aeruginosa KY 8512; test: as above; conditions: KY8512, clinical isolate, Table 7
Excerpt: as §2, §3

[17] = test system: Gram-positive and Gram-negative bacteria; test: Antibacterial activity against Gram-positive and Gram-negative bacteria (summary)

With `CNC[C@@H]1CC[C@@H](N)[C@@H](O[C@H]2[C@H](O)[C@@H](O[C@H]3OC[C@](C)(O)[C@H](NC)[C@H]3O)[C@H](N)C[C@@H]2N)O1` [XK-62-2] the Activity ([1]; Example 1, purified preparate, free base) was 950 unit/mg, the Activity ([1]; Example 2, free base, Mm-628 ATCC 21827) was 932 unit/mg and the Activity ([1]; Example 3, purified preparate, free base) was “about 950 unit/mg”. For the same compound, the Activity ([1]; Example 4, free base) was 900 unit/mg, the Activity ([1]; Example 5, free base) was 975 unit/mg and the Activity ([1]; Example 6, free base, Micromonospora purpurea ATCC 15835) was 925 unit/mg. It also gave an Activity ([1]; Example 7, free base, Micromonospora echinospora ATCC 15837 NRRL 2985) of 898 unit/mg, an Activity ([1]; Example 7, free base, Micromonospora echinospora var. ferruginea NRRL 2995) of 912 unit/mg and an Activity ([1]; Example 7, free base, Micromonospora echinospora var. pallida NRRL 2996) of 925 unit/mg. It also gave an MIC (Escherichia coli KY 8310) of 1.05 µg/mL (≈ 2.27 µM), an MIC [2] of 0.0082 µg/mL (≈ 0.0177 µM) and an MIC [3] of 0.016 µg/mL (≈ 0.0345 µM). It also gave an MIC [4] of 0.53 µg/mL (≈ 1.14 µM), an MIC [5] of 0.065 µg/mL (≈ 0.14 µM) and an MIC [6] of 0.0021 µg/mL (≈ 0.00453 µM). For the same compound, the MIC (Escherichia coli ATCC 26) was 0.0082 µg/mL (≈ 0.0177 µM), the MIC [7] was 0.0041 µg/mL (≈ 0.00884 µM) and the MIC [8] was 1.05 µg/mL (≈ 2.27 µM). The MIC [9] was < 0.001 µg/mL, the MIC [10] was < 0.0041 µg/mL and the MIC (Escherichia coli KY 8302) was 0.033 µg/mL (≈ 0.0712 µM). The MIC [11] was 0.07 µg/mL (≈ 0.151 µM), the MIC [12] was < 0.004 µg/mL and the MIC [13] was 0.0082 µg/mL (≈ 0.0177 µM). For the same compound, the MIC (Escherichia coli KY 8315) was 0.016 µg/mL (≈ 0.0345 µM), the MIC [14] was 0.018 µg/mL (≈ 0.0388 µM) and the Susceptibility of strain ([15]; KY 8516) was “sensitive”. For the same compound, the MIC ([15]; Pseudomonas aeruginosa, KY8516, agar dilution, clinical isolate, Table 7) was 0.33 µg/mL (≈ 0.712 µM), the “Antibacterial activity relative to gentamicin complex or gentamicin C1a” value ([15]; vs gentamicin complex or gentamicin C1a) was “much higher antibacterial activity” and the MIC [16] was 0.33 µg/mL (≈ 0.712 µM). For the same compound, the Antibacterial activity ([17]; both in vitro and in vivo, broad range of Gram-positive and Gram-negative bacteria) was “very strong antibacterial activity”, the “In vitro activity relative to gentamicin” value ([17]; in vitro, vs gentamicin) was “comparable” and the “In vitro activity relative to streptomycin and kanamycin” value ([17]; in vitro, vs streptomycin and kanamycin) was “far superior”.
